From patent US10485846B2, “Collagenase-derived peptides promote tissue regeneration and wound healing” (Tufts University, priority 2014, dated 2019)

How the values were obtained:
[1] = tested on: human microvascular endothelial cells; assay: In vitro angiogenesis / tube formation on growth factor-reduced Matrigel; assay type: cell-based; details: 100 nM peptide in Matrigel and media (FIG. 4)
Procedure: ECM-derived peptides were dissolved in growth factor-reduced Matrigel at 100 nM, the matrix was allowed to polymerize, human microvascular endothelial cells were plated either in control low serum containing media or media containing 100 nM peptides. Representative images of cells treated with endothelial ECM-derived peptides are shown.
Function-specific domains present within TSN1/2 and the newly-engineered “combinatorial” peptides present within TSN 10 are able to promote in vitro angiogenesis. TSN peptides promote morphogenesis and angiogenic activation by stimulating migration, proliferation and tube formation; peptide-stimulated endothelial tubes are more numerous, of greater length, having more branch points then control treated endothelial cell cultures.

[2] = tested on: adult human keratinocytes; assay: Adult human keratinocyte proliferation (coulter counter cell count); assay type: cell-based; details: FIG. 3B, PK vs. peptides
Procedure: Adult human keratinocytes were plated at low density in multi-well plates and treated with 10 nM peptides (FIG. 3A) or 1-100 nM peptides (FIG. 3B) every other day. At day 7 post-plating the cells were counted using a coulter counter. Cell proliferation relative to control (FIG. 3A) or absolute cell number grown (FIG. 3B) are shown. *statistical significance (p<0.05).
(§1) In our efforts aimed at characterizing the growth-promoting, migration-enhancing and angiogenesis-inducing activities embodied in SANTYL® collagenase Ointment and in an effort focused on contrasting the efficacy of collagenase vs. the newly-discovered SANTYL® collagenase API-derived bioactive wound healing peptide(s), we continue to perform a battery of pre-clinical tests and trials using the well-established models of injury and repair developed, here, at Tufts University School of Medicine and the Center for Innovations in Wound Healing Research. To these ends, we took advantage of the 2D and 3D injury/repair models developed to quantify cellular responses to injury. […] This is especially noteworthy since these peptides not only promote vascular endothelial growth but, adult human keratinocyte growth.

[3] = tested on: adult human keratinocytes; assay: Scratch wound closure / post-injury migration of keratinocyte monolayer; assay type: cell-based; details: 10 nM peptide, monitored 0, 1, 3 and 5 hours post-injury (FIG. 5)
Procedure: Adult human keratinocytes were plated into glass-bottom well plates at high density. Scratch wounds were made in the cell monolayer 24 h post-plating. The peptides dissolved in keratinocyte growth media (10 nM) were applied immediately after wounding. Wound closure was monitored at 0, 1, 3 and 5 hours post-injury. Dashed line outlines the wounds. Representative images of wounds treated with TSN2 and TSN6 are shown.
Human epidermis-derived keratinocytes were plated at a post-confluent density prior to mechanical injury in the presence or absence of bioactive wound healing peptides or control entities.

cranial cutaneous wounds = assay: Cranial cutaneous excisional wound healing in cyclophosphamide-treated mice (impaired healing model); assay type: in vivo, Balb/c mice; details: peptide in CMC applied daily days 1-5, day 6 post-injury; vs untreated control or collagenase (FIGS. 7-8)
Procedure: Balb/c mice were pre-treated with cyclophosphamide at 150 mg/kg 3 days prior to injury and with 100 mg/kg cyclophosphamide 1 day before injury. Cranial cutaneous wounds were created using 4 mm punch biopsy tool and immediately covered with adherent transparent dressing (TEGADERM™). The peptides were prepared fresh daily and injected under the dressing on days 1-5 post injury. On day 6 after wounding the animals were sacrificed according to Division of Laboratory Animal Medicine (DLAM) approved procedures. Wounds together with surrounding healthy tissues were excised, cut in half along the midline and either fixed in 4% phosphate buffered formaldehyde or frozen in OCT for further processing. […]
Wounds were created, treated as described in FIG. 6 and scored in a blind manner according to the grading described in Table 2. * indicates statistical significance of findings (p<0.05).
Wounds were created and treated as described in FIG. 1. Wound epithelialization was measured at day 6 post wounding. ** indicate statistical significance of findings (p<0.05). […]
Following cyclophosphamide treatment, animals were injured and then wounds treated/covered. Test entities were coded so that the nature of the experiment was blinded to the investigator; and, each specimen was evaluated and scored blindly according to the wound healing system shown in Table 2, prior to unmasking the experimental code. […]

[4] = tested on: human microvascular endothelial cells; assay: Human microvascular endothelial cell proliferation (coulter counter cell count); assay type: cell-based; details: for endothelial cell proliferation relative to control: 100 nM peptides every other day, counted day 5 post-plating (FIG. 2); for endothelial growth-promoting activity compared with fibroblast growth factor 2 (FGF2): FIG. 2
Procedure: Human microvascular endothelial cells were plated at low density in multi-well plates and treated with 100 nM peptides every other day. At day 5 post-plating the cells were counted using a coulter counter. Cell proliferation relative to control is shown. *statistical significance (p<0.05).
as §1

Row | Sequence | in vitro angiogenesis (tube formation) [1] | keratinocyte growth-promoting activity compared with PK SANTYL collagenase API [2] | keratinocyte migration in response to scratch injury (wound closure) [3] | wound healing in vivo (wound score, Table 2 grading; wound closure) (cranial cutaneous wounds) | endothelial cell proliferation relative to control [4] | endothelial growth-promoting activity compared with fibroblast growth factor 2 (FGF2) [4]
1 | TGQSYNQYSQRPYLGVYVFK (listed as Homo sapiens) [TSN10, 20 aa combinatorial peptide; Combination of Thrombospondin and multimerin peptides] | markedly promoted in vitro angiogenesis | completely accounting for the keratinocyte growth-promoting activity present within PK SANTYL collagenase API |  |  |  | 
2 | HSPDIQLQKGLTFEPIQIK (listed as Homo sapiens) [TSN6, 19 aa peptide; origin Multimerin-1 Coiled coil domain] |  |  | marked migration-enhancing activity | markedly stimulated to heal wounds |  | 
3 | MENAELDVPIQSVFTR (listed as Homo sapiens) [TSN2, 16 aa peptide; origin Thrombospondin-1 N-terminal domain] | angiogenesis-inducing activity | completely accounting for the keratinocyte growth-promoting activity present within PK SANTYL collagenase API | marked migration-enhancing activity |  | stimulate human dermally-derived microvascular endothelial cell growth in vitro | exceed the growth-promoting activity embodied in fibroblast growth factor 2 (FGF2)
4 | RPGPSPEGTGQSYNYR (listed as Homo sapiens) [TSN8, 16 aa peptide] | markedly promoted in vitro angiogenesis |  |  |  |  | 
5 | NFQGVQNRFVFGTP (listed as Homo sapiens) [TSN1, 14 aa peptide; origin Thrombospondin-1 Laminin G-like domain] | markedly promoted in vitro angiogenesis | completely accounting for the keratinocyte growth-promoting activity present within PK SANTYL collagenase API |  |  | stimulate human dermally-derived microvascular endothelial cell growth in vitro | exceed the growth-promoting activity embodied in fibroblast growth factor 2 (FGF2)
